Data published in patent publication US20190119284A1, “ErbB Inhibitors and Uses Thereof” (The Regents of the University of California, priority 2016, published 2019).
Values belong to the compound of their own block, whether it stands above or below them.

Assays:
TYK2 = TYK2 (Homo sapiens, UniProt P29597); assay: Nanosyn in vitro kinase profiling: TYK2; assay type: biochemical; details: compound at 1 μM
wt EGFR = target: T1, wt EGFR (Homo sapiens, UniProt P00533); assay: phosphosite signaling on wt EGFR; assay type: cell-based
T1 construct: leaving the same phosphosites on wt EGFR relatively unaffected up to 1 μM; endogenous in cells

MEK1 = MEK1 (Homo sapiens, UniProt Q02750); assay: Nanosyn in vitro kinase profiling: MEK1; assay type: biochemical; details: compound at 1 μM
MEK2 = MEK2 (Homo sapiens, UniProt P36507); assay: Nanosyn in vitro kinase profiling: MEK2; assay type: biochemical; details: compound at 1 μM
[1] = system: HER2 overexpressing cell lines (BT-474, SK-BR-3); assay: cell death with CellTox green (Incucyte Zoom), 72 h +/- NRG; assay type: cell-based; details: BT-474 and SK-BR-3, 72 h +/- NRG
Description: FIGS. 15A-15C. NRG rescues HER2 overexpressing cell lines from type 1.5 inhibitors but not compound 3. FIG. 15A. BT-474 cells were treated with the indicated concentrations of drugs in the presence or absence of NRG for 72 h. Cell death was determined using CellTox green with the Incucyte Zoom data are represented as mean values±SD (n=3). FIG. 15B. Same experiment as in FIG. 15A, but with SK-BR-3 cells. c. Cells were treated with 1 μM of the indicated inhibitor in the presence of varying concentrations of NRG. The lapatininb data is reproduced from FIG. 1C (mean value±SD, n=3).

CHL-1 cells = assay: growth of CHL-1 cells over 96 h (IncuCyte Zoom confluence); assay type: cell-based; details: CHL-1, 96 h, compared with lapatinib
HER3 kinase domain = target: T2, HER3 kinase domain (Homo sapiens, UniProt P21860); assay: HER3 Thermofluor Assay; assay type: binding; details: 20 μM inhibitor
T2 construct: added to 19 μL of the HER3 kinase domain in reaction buffer; made in house; host or cells: baculovirus/insect cells (inferred from the pFastBac plasmid)
Description: HER3 Thermofluor Assay. The HER3 gatekeeper mutation (T787M) was introduced into the HER3 tyrosine kinase domain in the pFastBac plasmid using standard protocols. Both wt and T787M HER3 were purified according to the previously published protocols. Thermofluor reactions were performed in duplicate and set up as follows. 1 μL of an inhibitor or DMSO dilution in 40% DMSO:water was added to 19 μL of the HER3 kinase domain in reaction buffer. The final reaction solution contained 100 mM MOPS, 200 mM NaCl, 5% glycerol, 5 mM MgCl2, 0.1 mM DTT, 5× SYPRO orange, 2 μM kinase, 2% DMSO and 20 μM inhibitor in the wells of a 96-well, low profile, white, PCR plate (USA scientific). The solution was pipetted up and down to mix, sealed with TempAssure clear PCR flat caps (USA Scientific), centrifuged at 500×g for 30 s, and heated in a Stratagene Mx3005P RT-PCR machine from 25° C. to 95° C. in 0.5° C. increments every 30 s after an initial incubation at 25° C. for 10 min. Fluorescence was measured at the end of each 30 s period with an excitation wavelength of 492 nm and an emission wavelength of 610 nm. […] Values after the well had reached a maximum signal were discarded and the signals were fit to the Boltzmann equation in Graphpad Prism 6. ΔTm was calculated as the difference in melting temperature between the compound treated kinase compared to the DMSO control.

AKT1 = AKT1 (Homo sapiens, UniProt P31749); assay: Nanosyn in vitro kinase profiling: AKT1; assay type: biochemical
Description: (§1) This was confirmed by in vitro profiling against a panel of kinases, with compound 2 only showing potent inhibition of EGFR and Ab1 (Table 2).
(§2) In vitro Kinome Screen. In vitro profiling of compound 2 at 100 nM was conducted by Nanosyn.

BLK = BLK (Homo sapiens, UniProt P51451); assay: Nanosyn in vitro kinase profiling: BLK; assay type: biochemical
Description: as §1, §2

TYRO3 = TYRO3 (Homo sapiens, UniProt Q06418); assay: Nanosyn in vitro kinase profiling: TYRO3; assay type: biochemical
Description: as §1, §2

TRKA = TRKA (Homo sapiens, UniProt P04629); assay: Nanosyn in vitro kinase profiling: TRKA; assay type: biochemical
Description: as §1, §2

JAK3 = JAK3 (Homo sapiens, UniProt P52333); assay: Nanosyn in vitro kinase profiling: JAK3; assay type: biochemical
Description: as §1, §2

[2] = target: T3, HER3 intracellular domain (665-1323) (Homo sapiens, UniProt P21860); assay: HER3 intracellular domain autophosphorylation on vesicles; assay type: biochemical; details: 1 μM HER3 intracellular domain, 200 μM ATP
T3 construct: The HER3 intracellular domain (665-1323) was concentrated on vesicles; made in house
Description: FIG. 11. […] 1 μM of The HER3 intracellular domain (665-1323) was concentrated on vesicles and incubated with 200 μM ATP in the presence of varying concentrations of compound 2. HER3 kinase activity inhibition was evaluated by western blotting for autophosphorylation of HER3.

DYRK1B = DYRK1B (Homo sapiens, UniProt Q9Y463); assay: Nanosyn in vitro kinase profiling: DYRK1B; assay type: biochemical
Description: as §1, §2

[3] = system: HER2 mutants biased towards the active conformation (NCI-H1781 cells); assay: signaling in NCI-H1781 cells after 15 min; assay type: cell-based; details: NCI-H1781, dose response
[4] = system: HER2/HER3 signaling in SK-BR-3 cells; assay: HER2/HER3 signaling in SK-BR-3 cells (western blot); assay type: cell-based
Source text: FIGS. 1A-1E. […] FIG. 1E: Cartoon schematic of the EGFR family kinase domain asymmetric dimer. The C-terminal domain of the ‘activator’ kinase (right) interacts with the N-terminal portion of the ‘receiver’ kinase (left). This interaction stabilizes the active conformation of the receiver kinase identified by the ‘in’ conformation of the receiver kinase's α-C helix and the ordered extension of the activation loop.

TYRO3, sequence (Q06418 41-890, species assumed): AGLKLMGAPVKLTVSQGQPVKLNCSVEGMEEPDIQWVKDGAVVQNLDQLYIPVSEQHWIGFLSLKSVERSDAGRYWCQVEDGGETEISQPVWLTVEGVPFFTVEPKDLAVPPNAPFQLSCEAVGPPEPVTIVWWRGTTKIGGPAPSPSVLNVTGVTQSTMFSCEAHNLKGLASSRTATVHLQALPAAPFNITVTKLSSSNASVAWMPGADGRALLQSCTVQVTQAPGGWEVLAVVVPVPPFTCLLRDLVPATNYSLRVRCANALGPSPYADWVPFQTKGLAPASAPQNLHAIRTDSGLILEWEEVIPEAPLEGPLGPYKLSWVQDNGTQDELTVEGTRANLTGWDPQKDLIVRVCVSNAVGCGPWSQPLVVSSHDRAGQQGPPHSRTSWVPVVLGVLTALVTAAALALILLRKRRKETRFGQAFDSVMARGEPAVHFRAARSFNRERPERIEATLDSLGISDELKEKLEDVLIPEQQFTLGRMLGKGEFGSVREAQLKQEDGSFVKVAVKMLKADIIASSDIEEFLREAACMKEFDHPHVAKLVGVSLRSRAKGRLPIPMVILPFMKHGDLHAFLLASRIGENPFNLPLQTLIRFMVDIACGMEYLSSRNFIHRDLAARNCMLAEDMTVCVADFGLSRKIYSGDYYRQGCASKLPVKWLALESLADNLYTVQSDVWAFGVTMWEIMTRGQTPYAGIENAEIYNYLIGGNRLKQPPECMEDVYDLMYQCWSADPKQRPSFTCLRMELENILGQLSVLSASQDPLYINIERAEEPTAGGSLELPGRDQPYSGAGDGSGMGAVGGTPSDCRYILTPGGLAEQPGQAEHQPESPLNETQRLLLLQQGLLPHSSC
BLK, sequence (P51451 whole entry): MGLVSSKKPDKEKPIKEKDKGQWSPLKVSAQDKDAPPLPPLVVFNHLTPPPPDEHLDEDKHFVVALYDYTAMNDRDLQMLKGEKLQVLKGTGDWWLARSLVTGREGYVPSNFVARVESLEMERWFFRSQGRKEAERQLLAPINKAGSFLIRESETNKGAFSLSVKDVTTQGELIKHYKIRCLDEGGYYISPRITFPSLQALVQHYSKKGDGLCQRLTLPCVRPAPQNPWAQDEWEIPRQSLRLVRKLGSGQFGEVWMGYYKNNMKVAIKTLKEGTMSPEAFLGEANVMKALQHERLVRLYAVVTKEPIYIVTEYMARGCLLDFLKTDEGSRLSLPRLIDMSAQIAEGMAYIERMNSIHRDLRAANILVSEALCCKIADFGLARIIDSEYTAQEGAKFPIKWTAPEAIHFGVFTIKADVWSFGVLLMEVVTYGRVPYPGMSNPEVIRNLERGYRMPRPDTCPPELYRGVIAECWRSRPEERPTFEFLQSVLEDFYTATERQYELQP
DYRK1B, sequence (Q9Y463 whole entry, species assumed): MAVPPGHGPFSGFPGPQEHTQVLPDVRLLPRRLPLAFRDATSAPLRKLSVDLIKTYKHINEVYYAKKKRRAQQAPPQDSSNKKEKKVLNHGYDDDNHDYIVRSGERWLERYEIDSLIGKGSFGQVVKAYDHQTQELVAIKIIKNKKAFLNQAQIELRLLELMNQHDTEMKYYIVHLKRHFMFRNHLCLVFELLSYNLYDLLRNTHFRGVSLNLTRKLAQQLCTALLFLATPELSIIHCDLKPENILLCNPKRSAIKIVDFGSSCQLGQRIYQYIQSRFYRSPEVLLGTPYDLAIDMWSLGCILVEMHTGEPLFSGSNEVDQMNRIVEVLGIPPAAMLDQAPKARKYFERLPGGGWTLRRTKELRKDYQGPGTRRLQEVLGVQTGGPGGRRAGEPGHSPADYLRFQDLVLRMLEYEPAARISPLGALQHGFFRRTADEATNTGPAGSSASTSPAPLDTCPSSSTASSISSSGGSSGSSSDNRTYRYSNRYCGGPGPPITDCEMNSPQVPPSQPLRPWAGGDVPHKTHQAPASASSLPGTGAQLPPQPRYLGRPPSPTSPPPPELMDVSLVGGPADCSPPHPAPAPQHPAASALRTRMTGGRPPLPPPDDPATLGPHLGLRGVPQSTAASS
TRKA, sequence (P04629 33-796, species assumed): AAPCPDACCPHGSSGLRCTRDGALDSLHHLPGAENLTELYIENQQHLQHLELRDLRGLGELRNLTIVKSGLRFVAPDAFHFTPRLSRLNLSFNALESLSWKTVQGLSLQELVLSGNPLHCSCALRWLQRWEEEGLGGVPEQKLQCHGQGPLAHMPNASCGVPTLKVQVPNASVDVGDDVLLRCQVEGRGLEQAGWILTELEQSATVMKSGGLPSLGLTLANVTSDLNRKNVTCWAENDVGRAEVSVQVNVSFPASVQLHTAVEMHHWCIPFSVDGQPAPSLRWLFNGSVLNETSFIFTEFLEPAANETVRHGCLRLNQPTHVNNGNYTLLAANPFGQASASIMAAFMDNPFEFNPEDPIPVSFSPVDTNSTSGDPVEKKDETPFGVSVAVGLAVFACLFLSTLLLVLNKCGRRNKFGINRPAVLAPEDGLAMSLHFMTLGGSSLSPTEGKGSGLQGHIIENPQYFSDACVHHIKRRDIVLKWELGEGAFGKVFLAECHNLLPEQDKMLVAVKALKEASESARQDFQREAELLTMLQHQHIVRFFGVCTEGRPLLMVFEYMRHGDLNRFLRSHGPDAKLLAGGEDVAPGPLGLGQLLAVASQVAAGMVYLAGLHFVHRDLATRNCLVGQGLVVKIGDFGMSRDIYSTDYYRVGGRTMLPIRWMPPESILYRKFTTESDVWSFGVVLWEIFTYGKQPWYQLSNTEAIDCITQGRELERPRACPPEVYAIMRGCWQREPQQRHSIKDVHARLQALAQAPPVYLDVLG
AKT1, sequence (P31749 whole entry): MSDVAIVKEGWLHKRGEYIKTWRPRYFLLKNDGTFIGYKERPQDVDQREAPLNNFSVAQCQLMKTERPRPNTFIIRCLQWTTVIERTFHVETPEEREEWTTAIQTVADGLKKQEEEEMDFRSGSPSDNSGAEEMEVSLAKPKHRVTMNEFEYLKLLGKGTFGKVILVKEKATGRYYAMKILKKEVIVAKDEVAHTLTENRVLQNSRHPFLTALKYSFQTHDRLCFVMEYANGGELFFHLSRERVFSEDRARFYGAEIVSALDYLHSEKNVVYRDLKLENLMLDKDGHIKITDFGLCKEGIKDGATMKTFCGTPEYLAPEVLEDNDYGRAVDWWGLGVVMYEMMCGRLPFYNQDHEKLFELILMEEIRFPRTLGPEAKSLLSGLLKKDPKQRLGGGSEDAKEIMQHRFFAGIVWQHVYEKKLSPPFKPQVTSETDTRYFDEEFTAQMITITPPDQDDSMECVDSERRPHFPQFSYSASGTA
JAK3, sequence (P52333 whole entry): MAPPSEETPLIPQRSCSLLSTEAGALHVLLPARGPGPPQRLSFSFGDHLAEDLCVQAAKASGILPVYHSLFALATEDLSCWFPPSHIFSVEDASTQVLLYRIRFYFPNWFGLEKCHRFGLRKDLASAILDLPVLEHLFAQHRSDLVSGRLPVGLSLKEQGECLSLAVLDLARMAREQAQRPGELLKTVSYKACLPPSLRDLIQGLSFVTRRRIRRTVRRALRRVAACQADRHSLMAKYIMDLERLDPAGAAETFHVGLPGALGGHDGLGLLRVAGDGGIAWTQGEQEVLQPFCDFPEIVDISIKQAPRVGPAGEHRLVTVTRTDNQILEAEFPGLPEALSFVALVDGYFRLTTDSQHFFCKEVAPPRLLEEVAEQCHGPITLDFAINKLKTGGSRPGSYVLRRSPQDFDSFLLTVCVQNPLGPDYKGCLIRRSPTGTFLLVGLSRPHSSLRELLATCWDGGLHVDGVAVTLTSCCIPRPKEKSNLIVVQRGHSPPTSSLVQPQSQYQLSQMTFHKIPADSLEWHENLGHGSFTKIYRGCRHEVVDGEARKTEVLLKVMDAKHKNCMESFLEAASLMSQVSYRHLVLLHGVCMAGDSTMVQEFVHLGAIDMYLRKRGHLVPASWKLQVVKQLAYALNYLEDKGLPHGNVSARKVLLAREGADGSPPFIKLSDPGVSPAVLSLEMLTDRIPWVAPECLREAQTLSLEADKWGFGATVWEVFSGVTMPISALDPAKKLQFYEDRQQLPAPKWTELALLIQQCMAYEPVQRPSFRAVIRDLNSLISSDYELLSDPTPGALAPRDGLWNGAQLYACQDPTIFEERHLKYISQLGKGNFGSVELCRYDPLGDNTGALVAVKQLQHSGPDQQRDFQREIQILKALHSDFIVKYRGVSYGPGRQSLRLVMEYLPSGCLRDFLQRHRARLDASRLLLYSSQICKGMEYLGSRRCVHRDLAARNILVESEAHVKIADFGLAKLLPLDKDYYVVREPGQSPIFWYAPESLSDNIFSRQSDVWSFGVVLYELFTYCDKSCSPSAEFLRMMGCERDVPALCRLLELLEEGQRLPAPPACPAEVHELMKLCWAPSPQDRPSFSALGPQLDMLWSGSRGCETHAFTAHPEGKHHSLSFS
MEK2, sequence (P36507 whole entry, species assumed): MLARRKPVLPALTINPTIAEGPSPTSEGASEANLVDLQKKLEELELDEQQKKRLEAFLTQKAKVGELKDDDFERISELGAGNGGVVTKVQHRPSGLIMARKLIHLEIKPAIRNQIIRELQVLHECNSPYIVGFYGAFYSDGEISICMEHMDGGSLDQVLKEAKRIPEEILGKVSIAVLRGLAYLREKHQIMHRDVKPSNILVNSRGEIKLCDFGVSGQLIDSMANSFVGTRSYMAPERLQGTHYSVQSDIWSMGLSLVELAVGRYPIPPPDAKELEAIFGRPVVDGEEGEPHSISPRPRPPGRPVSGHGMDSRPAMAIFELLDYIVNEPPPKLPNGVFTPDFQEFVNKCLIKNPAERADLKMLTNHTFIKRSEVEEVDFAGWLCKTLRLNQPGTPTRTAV
T2 sequence (P21860 709-966 limits assumed): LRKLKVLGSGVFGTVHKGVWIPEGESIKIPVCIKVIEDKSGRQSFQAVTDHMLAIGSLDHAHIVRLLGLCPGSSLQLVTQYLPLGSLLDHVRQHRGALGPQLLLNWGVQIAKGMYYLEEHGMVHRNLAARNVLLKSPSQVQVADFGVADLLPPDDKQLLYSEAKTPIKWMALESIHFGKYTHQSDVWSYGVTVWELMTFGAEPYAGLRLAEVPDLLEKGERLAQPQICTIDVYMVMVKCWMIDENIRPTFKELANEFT

inhibition at 1 µM (TYK2): 51%
same phosphosites on wt EGFR relatively unaffected up to (wt EGFR): > 1 µM
inhibition at 1 µM (MEK1): 66%
inhibition at 1 µM (MEK2): 70%
Compound: COc1ccc(-c2ccoc2)cc1Nc1ncnc2[nH]cc(-c3cc[nH]n3)c12 [compound 3, N-(5-(furan-3-yl)-2-methoxyphenyl)-5-(1H-pyrazol-3-yl)-7H-pyrrolo[2,3-d]pyrimidin-4-amine]
rescue by NRG [1]: not
reduction of cell growth (confluence) (CHL-1 cells): more effective at reducing the growth of CHL-1 cells

binding to HER3 (HER3 kinase domain): capable of binding to HER3
inhibition at 0.1 µM (AKT1; compound at 100 nM): 14.3%
inhibition at 1 µM (AKT1; compound at 1 μM): 33%
inhibition at 0.1 µM (BLK; compound at 100 nM): 59.9%
inhibition at 1 µM (BLK; compound at 1 μM): 90.4%
inhibition at 0.1 µM (TYRO3; compound at 100 nM): 3.29%
inhibition at 1 µM (TYRO3; compound at 1 μM): 5.56%
inhibition at 0.1 µM (TRKA; compound at 100 nM): 2.38%
inhibition at 1 µM (TRKA; compound at 1 μM): 4.5%
inhibition at 0.1 µM (JAK3; compound at 100 nM): 20.4%
inhibition at 1 µM (JAK3; compound at 1 μM): 69.4%
binding to HER3 / inhibition of HER3 autophosphorylation [2]: binds to the active site of HER3
inhibition at 0.1 µM (DYRK1B; compound at 100 nM): 4.01%
inhibition at 1 µM (DYRK1B; compound at 1 μM): 22.6%
Compound: COc1ccc(-c2ccco2)cc1Nc1ncnc2[nH]nc(-c3ccco3)c12 [compound 2, 3-(furan-2-yl)-N-(5-(furan-2-yl)-2-methoxyphenyl)-1H-pyrazolo[3,4-d]pyrimidin-4-amine]

Compound: CS(=O)(=O)CCNCc1ccc(-c2ccc3ncnc(Nc4ccc(OCc5cccc(F)c5)c(Cl)c4)c3c2)o1 [lapatinib]
binding to HER2 mutants judged by signaling after short treatment [3]: does not efficiently bind to HER2 mutants biased towards the active conformation
activation of EGFR family members ([4]; SK-BR-3, 1 μM lapatinib +/- NRG, 1 h): HER3 is the only member of the EGFR family who remains activated
HER2/HER3 signaling after NRG pre-treatment ([4]; SK-BR-3, NRG or vehicle 15 min then dose response 15 min): NRG pre-treatment rescues HER2/HER3 signaling
efficacy on signaling, 15 min pre-treat vs simultaneous addition with NRG ([4]; SK-BR-3, serum starved 24 h): reduced efficacy of lapatinib when simultaneously added with NRG
HER2/HER3 signaling over a time-course ([4]; SK-BR-3 treated with lapatinib, NRG, or both): NRG rescues p-HER3 and all downstream signaling at all time points examined
